Experimental data: patent publication US10323038B2, “Pyrazole compounds and methods of making and using same” (ABIDE THERAPEUTICS, INC., priority 2015, dated 2019)
pIC50: −log10 of the molar value.

Experiments:
[1] = target: MAGL (Mus musculus (Mouse), UniProt O35678); assay: In vitro competitive activity-based protein profiling, MAGL (mouse); assay type: biochemical; settings: for inhibition at 1 µM: read-out: MAGL % inh. 1 μM (mouse)
Method in brief: (§1)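 Proteomes at 1.0 mg/mL protein (mouse brain membranes or cell lysates; human prefrontal cortex or cell membranes) preincubated with inhibitor 30 min at 37 °C. Then FP-Rh or HT-01 probe (50 μM stock) added for 30 min at 37 °C. MAGL and FAAH activity measured by SDS-PAGE band fluorescence.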

[2] = target: FAAH (Mus musculus (Mouse), UniProt O08914); assay: In vitro competitive activity-based protein profiling, FAAH (mouse); assay type: biochemical; settings: for inhibition at 1 µM: read-out: FAAH % inh. 1 μM (mouse)
Method in brief: as §1

Chain of FAAH (O08914 whole entry): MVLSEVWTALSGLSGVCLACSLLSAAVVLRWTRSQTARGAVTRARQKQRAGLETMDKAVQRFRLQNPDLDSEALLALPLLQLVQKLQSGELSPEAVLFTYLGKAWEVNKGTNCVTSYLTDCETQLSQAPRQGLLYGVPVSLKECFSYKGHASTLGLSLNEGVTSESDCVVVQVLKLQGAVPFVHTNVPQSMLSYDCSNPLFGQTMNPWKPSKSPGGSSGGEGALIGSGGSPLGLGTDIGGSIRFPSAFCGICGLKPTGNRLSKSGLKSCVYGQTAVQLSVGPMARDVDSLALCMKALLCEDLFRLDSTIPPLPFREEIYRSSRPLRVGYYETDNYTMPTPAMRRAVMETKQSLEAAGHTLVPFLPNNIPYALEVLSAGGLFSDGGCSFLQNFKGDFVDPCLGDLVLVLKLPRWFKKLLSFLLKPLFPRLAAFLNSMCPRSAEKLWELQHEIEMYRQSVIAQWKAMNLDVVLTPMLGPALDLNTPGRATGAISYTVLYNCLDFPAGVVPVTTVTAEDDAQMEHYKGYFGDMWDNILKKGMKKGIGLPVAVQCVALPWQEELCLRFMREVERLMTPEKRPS
Chain of MAGL (O35678 whole entry): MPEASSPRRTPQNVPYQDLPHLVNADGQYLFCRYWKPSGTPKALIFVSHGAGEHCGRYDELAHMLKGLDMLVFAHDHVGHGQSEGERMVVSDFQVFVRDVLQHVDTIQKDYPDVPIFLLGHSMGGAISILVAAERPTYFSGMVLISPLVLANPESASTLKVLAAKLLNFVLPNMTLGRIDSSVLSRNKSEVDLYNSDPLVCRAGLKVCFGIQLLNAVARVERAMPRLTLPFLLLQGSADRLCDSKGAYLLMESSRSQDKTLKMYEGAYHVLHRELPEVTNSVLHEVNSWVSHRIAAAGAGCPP

inhibition at 1 µM [1]	inhibition at 1 µM [2]	pIC50 [1]	pIC50 [2]	SMILES
≥ 75%	≥ 75%			CC(=O)N(C)c1cnn(C(=O)N2C[C@H]3C[C@@H](N(C)Cc4cc(C(F)(F)F)ccc4Cl)C[C@H]3C2)c1 [Example 163, N-(1-(cis-5-((2-chloro-5-(trifluoromethyl)benzyl)(methyl)amino)octahydrocyclopenta[c]pyrrole-2-carbonyl)-1H-pyrazol-4-yl)-N-methylacetamide]
50 to 75%	≥ 75%	6.00 to 7.00	6.00 to 7.00	CC(=O)N(C)c1cnn(C(=O)N2CC3CN(Cc4ccc(C)cc4)CC3C2)c1 (centres unmarked) [Example 91, N-methyl-N-(1-(5-(4-methylbenzyl)octahydropyrrolo[3,4-c]pyrrole-2-carbonyl)-1H-pyrazol-4-yl)acetamide]
≥ 75%	25 to 50%			CC(=O)N(C)c1cnn(C(=O)N2C[C@H]3C[C@@H](N(Cc4ccccc4Cl)C(C)=O)C[C@H]3C2)c1 [Example 169, N-(2-chlorobenzyl)-N-(cis-2-(4-(N-methylacetamido)-1H-pyrazole-1-carbonyl)octahydrocyclopenta[c]pyrrol-5-yl)acetamide]
≥ 75%	≥ 75%	≥ 7.00	≥ 7.00	CC(=O)N(C)c1cnn(C(=O)N2C[C@H]3C[C@H](N(C)Cc4cc(Cl)ccc4C(F)(F)F)C[C@H]3C2)c1 [Example 164, N-(1-(trans-5-((5-chloro-2-(trifluoromethyl)benzyl)(methyl)amino)octahydrocyclopenta[c]pyrrole-2-carbonyl)-1H-pyrazol-4-yl)-N-methylacetamide]
≥ 75%	≥ 75%	6.00 to 7.00	≥ 7.00	CC(=O)N(C)c1cnn(C(=O)N2CCC3(CCN(Cc4ccc(N5CCOCC5)cc4Cl)C3)C2)c1 (centres unmarked) [Example 4, N-(1-(7-(2-chloro-4-morpholinobenzyl)-2,7-diazaspiro[4.4]nonane-2-carbonyl)-1H-pyrazol-4-yl)-N-methylacetamide]
≥ 75%	0 to 25%			CC(=O)N(C)c1cnn(C(=O)N2CCC3(CC2)CN(Cc2ccccc2N2CCCC2)C3)c1 [Example 45, N-methyl-N-(1-(2-(2-(pyrrolidin-1-yl)benzyl)-2,7-diazaspiro[3.5]nonane-7-carbonyl)-1H-pyrazol-4-yl)acetamide]
≥ 75%	50 to 75%	≥ 7.00	5.00 to 6.00	CC(=O)N(C)c1cnn(C(=O)N2CCN(Cc3cc(N4CCCC4)cc(C(F)(F)F)c3)CC2)c1 [Example 190, N-methyl-N-(1-(4-(3-(pyrrolidin-1-yl)-5-(trifluoromethyl)benzyl)piperazine-1-carbonyl)-1H-pyrazol-4-yl)acetamide]
25 to 50%	≥ 75%			CC(=O)N(C)c1cnn(C(=O)N2CC3(CCN(Cc4ccc(Cl)c(Cl)c4)CC3)C2)c1 [Example 18, N-(1-(7-(3,4-dichlorobenzyl)-2,7-diazaspiro[3.5]nonane-2-carbonyl)-1H-pyrazol-4-yl)-N-methylacetamide]
≥ 75%	25 to 50%			CC(=O)N(C)c1cnn(C(=O)N2CCN(Cc3ccccc3N3CCCC3)CC2)c1 [Example 215, N-methyl-N-(1-(4-(2-(pyrrolidin-1-yl)benzyl)piperazine-1-carbonyl)-1H-pyrazol-4-yl)acetamide]
≥ 75%	≥ 75%	≥ 7.00	6.00 to 7.00	CC(=O)N(C)c1cnn(C(=O)N2CCC3(CC2)CN(Cc2cccc(C(F)(F)F)c2)C3)c1 [Example 38, N-methyl-N-(1-(2-(3-(trifluoromethyl)benzyl)-2,7-diazaspiro[3.5]nonane-7-carbonyl)-1H-pyrazol-4-yl)acetamide]
25 to 50%	≥ 75%			CC(=O)N(C)c1cnn(C(=O)N2CCC3(CCN(Cc4cccc(N5CCCC5)c4)C3)C2)c1 (centres unmarked) [Example 82, N-methyl-N-(1-(7-(3-(pyrrolidin-1-yl)benzyl)-2,7-diazaspiro[4.4]nonane-2-carbonyl)-1H-pyrazol-4-yl)acetamide]
25 to 50%	≥ 75%			COc1ccc(CN2CC3CN(C(=O)n4cc(N(C)C(C)=O)cn4)CC3C2)cc1 (centres unmarked) [Example 179, N-(1-(5-(4-methoxybenzyl)octahydropyrrolo[3,4-c]pyrrole-2-carbonyl)-1H-pyrazol-4-yl)-N-methylacetamide]
25 to 50%	≥ 75%			CS(=O)(=O)Nc1cnn(C(=O)N2CCC3(CCN(Cc4cc(Cl)ccc4C(F)(F)F)C3)C2)c1 (centres unmarked) [Example 284, N-[1-[(7-[[5-chloro-2-(trifluoromethyl)phenyl]methyl]-2,7-diazaspiro[4.4]nonan-2-yl)carbonyl]-1H-pyrazol-4-yl]methanesulfonamide]
≥ 75%	≥ 75%			CC(=O)N(C)c1cnn(C(=O)N2CC3CN(Cc4ccc(-c5nccs5)cc4Cl)CC3C2)c1 (centres unmarked) [Example 267, N-(1-(5-(2-chloro-4-(thiazol-2-yl)benzyl)octahydropyrrolo[3,4-c]pyrrole-2-carbonyl)-1H-pyrazol-4-yl)-N-methylacetamide]
50 to 75%	≥ 75%	5.00 to 6.00	6.00 to 7.00	COc1cccc(CN2CC3CN(C(=O)n4cc(N(C)C(C)=O)cn4)CC3C2)c1 (centres unmarked) [Example 181, N-(1-(5-(3-methoxybenzyl)octahydropyrrolo[3,4-c]pyrrole-2-carbonyl)-1H-pyrazol-4-yl)-N-methylacetamide]
≥ 75%	≥ 75%	6.00 to 7.00	≥ 7.00	CC(=O)N(C)c1cnn(C(=O)N2CC3CN(Cc4ccc(Cl)c(Cl)c4)CC3C2)c1 (centres unmarked) [Example 12, N-(1-(5-(3,4-dichlorobenzyl)octahydropyrrolo[3,4-c]pyrrole-2-carbonyl)-1H-pyrazol-4-yl)-N-methylacetamide]
≥ 75%	≥ 75%			C#Cc1ccc(CN2CCN(C(=O)n3cc(N(C)C(C)=O)cn3)CC2)cc1 [Example 317, N-(1-(4-(4-ethynylbenzyl)piperazine-1-carbonyl)-1H-pyrazol-4-yl)-N-methylacetamide]
50 to 75%	≥ 75%	6.00 to 7.00	≥ 7.00	CC(=O)N(C)c1cnn(C(=O)N2C[C@H]3C[C@@H](N(C)Cc4cccc(Cl)c4)C[C@H]3C2)c1 [Example 141, N-(1-(cis-5-((3-chlorobenzyl)(methyl)amino)octahydrocyclopenta[c]pyrrole-2-carbonyl)-1H-pyrazol-4-yl)-N-methylacetamide]
50 to 75%	25 to 50%			COc1ccc(CN2CC3(CCN(C(=O)n4cc(N(C)C(C)=O)cn4)CC3)C2)cc1 [Example 33, N-(1-(2-(4-methoxybenzyl)-2,7-diazaspiro[3.5]nonane-7-carbonyl)-1H-pyrazol-4-yl)-N-methylacetamide]
≥ 75%	≥ 75%			CC(=O)N(C)c1cnn(C(=O)N2CCC3(CC2)CN(Cc2cccc(F)c2)C3)c1 [Example 35, N-(1-(2-(3-fluorobenzyl)-2,7-diazaspiro[3.5]nonane-7-carbonyl)-1H-pyrazol-4-yl)-N-methylacetamide]
≥ 75%	≥ 75%	6.00 to 7.00	6.00 to 7.00	CC(=O)N(C)c1cnn(C(=O)N2CCC3(CCN(Cc4ccc(Cl)cc4)C3)CC2)c1 [Example 188, N-(1-(2-(4-chlorobenzyl)-2,8-diazaspiro[4.5]decane-8-carbonyl)-1H-pyrazol-4-yl)-N-methylacetamide]
≥ 75%	≥ 75%			CC(=O)N(C)c1cnn(C(=O)N2CC3CN(Cc4ccc(Oc5nc6ccccc6s5)cc4Cl)CC3C2)c1 (centres unmarked) [Example 252, N-(1-(5-(4-(benzo[d]thiazol-2-yloxy)-2-chlorobenzyl)octahydropyrrolo[3,4-c]pyrrole-2-carbonyl)-1H-pyrazol-4-yl)-N-methylacetamide]
≥ 75%	≥ 75%	6.00 to 7.00	≥ 7.00	CC(=O)N(C)c1cnn(C(=O)N2CCC3(CCN(Cc4ccc(C)cc4Cl)C3)C2)c1 (centres unmarked) [Example 55, N-(1-(7-(2-chloro-4-methylbenzyl)-2,7-diazaspiro[4.4]nonane-2-carbonyl)-1H-pyrazol-4-yl)-N-methylacetamide]
≥ 75%	≥ 75%			CC(=O)N(C)c1cnn(C(=O)N2CCC3(CCN(Cc4cc(C(F)(F)F)ccc4C(F)(F)F)C3)C2)c1 (centres unmarked) [Example 72, N-(1-(7-(2,5-bis(trifluoromethyl)benzyl)-2,7-diazaspiro[4.4]nonane-2-carbonyl)-1H-pyrazol-4-yl)-N-methylacetamide]
≥ 75%	≥ 75%			CC(=O)N(C)c1cnn(C(=O)N2CC3CN(Cc4ccc(-c5ccncn5)cc4Cl)CC3C2)c1 (centres unmarked) [Example 272, N-(1-(5-(2-chloro-4-(pyrimidin-4-yl)benzyl)octahydropyrrolo[3,4-c]pyrrole-2-carbonyl)-1H-pyrazol-4-yl)-N-methylacetamide]
≥ 75%	≥ 75%			CC(=O)N(C)c1cnn(C(=O)N2CC3CN(Cc4ccc(-c5cncnc5)cc4Cl)CC3C2)c1 (centres unmarked) [Example 259, N-(1-(5-(2-chloro-4-(pyrimidin-5-yl)benzyl)octahydropyrrolo[3,4-c]pyrrole-2-carbonyl)-1H-pyrazol-4-yl)-N-methylacetamide]
≥ 75%	≥ 75%			CC(=O)N(C)c1cnn(C(=O)N2CC3CN(Cc4ccc(-c5ncccn5)cc4Cl)CC3C2)c1 (centres unmarked) [Example 261, N-(1-(5-(2-chloro-4-(pyrimidin-2-yl)benzyl)octahydropyrrolo[3,4-c]pyrrole-2-carbonyl)-1H-pyrazol-4-yl)-N-methylacetamide]
